Test results published in patent US20110046101A1, “BATE-LACTAMASE INHIBITORS” (priority 2008, published 2011).
Values joined by “and” are separate entries in the source; they are usually repeats but may differ in a detail not shown here. Identical values can stand only once. Like-named read-outs stand apart in the source and are kept apart here.

How the values were obtained:
IMP-1 = molecular target: T1, IMP-1 (Serratia marcescens, UniProt P52699); assay: biochemical; details: for IC50: IC50 (μM) class B IMP-1, nitrocefin 100 μM, 50 mM Hepes pH 7.3
T1 construct: made in house; host or cells: E. coli (pCIP4 plasmid from Dr. M. Galleni)
Experimental: (§1) Compounds of the present application were evaluated as inhibitors of two Class B β-lactamases (IMP-1 and VIM-2) and two Class D β-lactamases OXA-10 and OXA-45).
IMP-1 was overexpressed in E. coli using the pCIP4 plasmid encoding IMP-1 which was obtained from Dr. M. Galleni, Université de Liège, B-4000 Liege, Belgium, and was purified as described by Laraki, N. et al., Antimicrob. Agents Chemother. 1999 43, 902-906.
(§2) Two methods were used for measurement of β-lactamase activity, based on the use of the substrate nitrocefin. The first was carried out in a cuvette (final volume 1 ml, 25° C.) with the aid of a Cary 5 spectrophotometer, and second was with the use of a Molecular Devices Spectramax 190 96 well plate reader (final volume 100 μl, 30° C.).
(§3) All assays were performed in the appropriate buffer for the enzyme: (i) IMP-1, VIM-2: 50 mM Hepes pH 7.3, 1 μg/ml BSA, 1 μM ZnSO4; (ii) OXA-45: 100 mM Na Phosphate/25 mM NaCO3 pH 7.0, 1 μg/ml BSA; and (iii) OXA-10: 100 mM Na Phosphate/25 mM NaCO3 pH 7.0. Enzyme concentrations were chosen so that a reasonable rate of reaction was observed. Inhibitors were dissolved in DMSO, with the final concentration of DMSO in the assay being 1%. Nitrocefin was dissolved in DMSO and diluted in 50 mM Hepes pH 7.3 with the final concentration in the assay being 100 μM. The enzyme was allowed to react with the inhibitor for a predetermined time followed by addition of substrate to initiate the reaction, which was monitored for an increase in absorbance at 482 nm. IC50 values were determined by plotting percent loss of initial activity vs log inhibitor concentration. Controls were run to ensure that there was minimal loss of activity with DMSO (<10%). When inhibition by DMSO was noted, 0.5 M NaCl was added to stabilize the enzyme.

VIM-2 = molecular target: T2, VIM-2 (Escherichia coli, UniProt Q5U7L7); assay: biochemical; type: biochemical
T2 construct: made in house; host or cells: E. coli DH10B (pNOR,2001 plasmid from Dr. P. Nordmann)
Experimental: as §1
VIM-2 was overexpressed in E. coli (DH10B) containing the pNOR,2001 plasmid, encoding VIM-2, which was provided by Dr. P. Nordmann, Universite de Paris, and was purified as described by Poirel et al., Antimicrob. Agents Chemother. 2000, 44, 891-897.
as §2, §3

OXA-10 = molecular target: T3, OXA-10 (Pseudomonas aeruginosa, UniProt P14489); assay: biochemical; type: biochemical
T3 construct: made in house; host or cells: E. coli (pEt24a(+) plasmid from Dr. S. Mobashery)
Experimental: as §1
OXA-10 was overexpressed in E. coli using the pEt24a(+) plasmid, encoding OXA-10, which was provided by Dr. S. Mobashery, University of Notre Dame, and was purified as described by Golemi et al., J. Am. Chem. Soc. 2000, 122, 6132-6133.
as §2, §3

OXA-45 = OXA-45 (Pseudomonas aeruginosa, UniProt Q7WZC7); assay: β-lactamase inhibition assay with nitrocefin substrate, OXA-45; type: biochemical
Experimental: as §1
OXA-45 was a gift from Dr. J. Spencer, University of Bristol, and had been prepared and purified as described by Toleman, M. A. et al., Antimicrob. Agents Chemother. 2003, 47, 2859-2863.
as §2, §3

[1] = tested on: Pseudomonas aeruginosa strain 81-11963 (produces metallo β-lactamase VIM-2); assay: Agar dilution MIC, synergy with pipericillin, P. aeruginosa; type: cell-based; details: P. aeruginosa strain 81-11963 (VIM-2), compound at ¼ the concentration of the antibiotic, 18 h
Experimental: (§4) Such compounds were expected to enhance the potency of a clinically useful β-lactam antibiotic against clinical isolates of human pathogenic bacteria which are highly resistant to β-lactam antibiotics. Certain β-lactamase inhibitors were tested to determine whether or not they would have a synergistic effect on the antibacterial activity of pipericillin against β-lactam antibiotic resistant bacterial clinical isolates using the Agar Dilution Method.
(§5) Bacterial colonies were taken from overnight blood agar plates, and sterile saline was inoculated to make a 0.5 McFarland suspension inoculum and further diluted such that the 10^4 CFU spots were delivered to the MHA (Oxoid) surface. Inhibitor samples were dissolved in DMSO and administered at a pipericillin:compound ratio of 4:1 (wt/wt). The plates were incubated at 35° C. and read after 18 h of incubation. MICs were measured by agar dilution on Mueller-Hinton II agar (BD Microbiology Systems, Cockeysville, Md., USA), as recommended by the NCCLS (National Committee for Clinical Laboratory Standards. (2003).Performance Standards for Antimicrobial Susceptibility Testing.)

[2] = tested on: Stenotrophomonas maltophilia strain 92-00626 (produces metallo β-lactamase L1); assay: Agar dilution MIC, synergy with pipericillin, S. maltophilia; type: cell-based; details: S. maltophilia strain 92-00626 (L1), compound at ¼ the concentration of the antibiotic, 18 h
Experimental: as §4, §5

[3] = nitrocefin 100 μM, 100 mM Na Phosphate/25 mM NaCO3 pH 7.0, read-out: IC50 (μM) class D OXA-45

T3 sequence (P14489 20-266): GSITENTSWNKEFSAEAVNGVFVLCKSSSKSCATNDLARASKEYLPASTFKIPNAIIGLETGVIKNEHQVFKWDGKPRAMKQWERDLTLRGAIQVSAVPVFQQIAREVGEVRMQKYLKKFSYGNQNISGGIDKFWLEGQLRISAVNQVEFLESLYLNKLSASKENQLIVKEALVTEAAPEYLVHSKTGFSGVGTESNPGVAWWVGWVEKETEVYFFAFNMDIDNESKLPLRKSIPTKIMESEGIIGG
T1 sequence (P52699 19-246 limits assumed): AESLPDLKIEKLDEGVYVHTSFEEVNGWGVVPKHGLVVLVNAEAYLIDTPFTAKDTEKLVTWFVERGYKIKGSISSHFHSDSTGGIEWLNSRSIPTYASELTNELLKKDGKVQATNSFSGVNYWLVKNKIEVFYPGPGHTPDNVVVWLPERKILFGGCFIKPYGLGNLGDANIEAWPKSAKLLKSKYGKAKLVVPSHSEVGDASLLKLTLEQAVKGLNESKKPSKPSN
Chain of OXA-45 (Q7WZC7 entry or part of it): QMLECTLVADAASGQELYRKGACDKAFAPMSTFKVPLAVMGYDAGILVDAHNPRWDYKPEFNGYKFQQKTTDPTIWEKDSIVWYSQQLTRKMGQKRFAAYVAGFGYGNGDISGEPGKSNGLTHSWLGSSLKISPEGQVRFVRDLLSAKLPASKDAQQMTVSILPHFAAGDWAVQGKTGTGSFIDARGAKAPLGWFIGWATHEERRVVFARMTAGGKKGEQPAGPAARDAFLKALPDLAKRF

SMILES	IC50 (IMP-1)	inhibition of IMP-1 (in words) (IMP-1)	IC50 (VIM-2) [µM]	inhibition of VIM-2 (in words) (VIM-2)	IC50 (OXA-10) [µM]	inhibition of OXA-10 (in words) (OXA-10)	IC50 (OXA-45) [µM]	inhibition of OXA-45 (in words) (OXA-45)	IC50 (OXA-45; [3]) [µM]	diminution in the MIC value found for pipericillin [1]	diminution in the MIC value found for pipericillin [2]
CC(C)(C)c1ccc(C(=O)N/N=C/c2c3ccccc3cc3ccccc23)cc1 [Compound 1, N′-(Anthracen-9-ylmethylene)-4-t-butylbenzohydrazide]	0.9 µM and 0.91 µM	–	–	–	–	–	–	–	–	–	–
O=C(N/N=C/c1ccccc1O)c1ccc2ccccc2c1 [Compound 2, N′-(2-Hydroxybenzylidene)-2-naphthohydrazide]	38.3 µM	inhibited	35.1	inhibited	15.2	inhibited	1.8	inhibited	–	–	–
O=C(N/N=C/c1ccccc1O)c1cc2ccccc2cc1O [Compound 3, 3-Hydroxy-N′-(2-hydroxybenzylidene)-2-naphthohydrazide]	8.3 µM	inhibited	18.2	inhibited	3.9	inhibited	–	inhibited	0.25	greater than 4 fold	–
CC(C)(C)c1ccc(C(=O)N/N=C/c2c(O)ccc3ccccc23)cc1 [Compound 4, 4-t-Butyl-N′-((2-hydroxynaphthalen-1-yl)methylene)benzohydrazide]	3 µM	inhibited	9	inhibited	1.7	inhibited	–	inhibited	1.7	–	–
CC(C)(C)c1ccc(C(=O)N/N=C/c2ccccc2O)cc1 [Compound 5, 4-t-Butyl-N′-(2-hydroxybenzylidene)benzohydrazide]	9 µM	inhibited	18	inhibited	12.8	inhibited	–	inhibited	28	–	greater than 4 fold
O=C(N/N=C/c1c2ccccc2cc2ccccc12)c1cc2ccccc2cc1O [Compound 6, N′-(Anthracen-9-ylmethylene)-3-hydroxy-2-naphthohydrazide]	1.02 µM	–	12.3	–	2.8	–	–	–	0.57	–	–
O=C(N/N=C/c1cccc(Oc2ccccc2)c1)c1cc2ccccc2cc1O [Compound 7, 3-Hydroxy-N-(3-phenoxybenzylidene)-2-naphthohydrazide]	7 µM	–	8.5	–	1.8	–	0.56	–	–	–	–
CC(C)(C)c1ccc(C(=O)N/N=C/c2cccc(Oc3ccccc3)c2)cc1 [Compound 8, 4-t-Butyl-N′-(3-phenoxybenzylidene)benzohydrazide]	6.7 µM	–	23.9	–	10.3	–	4.3	–	–	–	–
CC(C)(C)c1ccc(C(=O)N/N=C/c2ccccc2OCc2ccccc2)cc1 [Compound 10, N′-(2-(Benzyloxy)benzylidene)-4-t-butylbenzohydrazide]	4.7 µM	–	> 10	–	> 10	–	–	–	> 10	–	–
CC(C)(C)c1ccc(C(=O)N/N=C/c2ccc3c(c2)OCO3)cc1 [Compound 11, N′-(Benzo[d][1,3]dioxol-5-ylmethylene)-4-t-butylbenzohydrazide]	> 10 µM	–	> 10	–	> 10	–	> 10	–	–	–	–
CC(C)(C)c1ccc(C(=O)N/N=C/c2ccccc2[N+](=O)[O-])cc1 [Compound 12, 4-t-Butyl-N′-(2-nitrobenzylidene)benzohydrazide]	> 10 µM	–	> 10	–	> 10	–	–	–	> 10	–	–
O=C(N/N=C/c1ccccc1O)c1cccnc1 [Compound 13, N′-(2-Hydroxybenzylidene)nicotinohydrazide]	> 100 µM	–	> 100	–	> 100	–	> 100	–	–	–	–
O=C(N/N=C/c1ccccc1O)c1ccncc1 [Compound 14, N′-(2-Hydroxybenzylidene)isonicotinohydrazide]	> 100 µM	–	> 100	–	> 100	–	–	–	> 100	–	–
O=C(N/N=C/c1ccccc1O)c1ccccc1O [Compound 15, 2-Hydroxy-N′-(2-hydroxybenzylidene)benzohydrazide]	> 40 µM	–	> 40	–	> 40	–	–	–	> 40	–	–
